The record followed here is patent US11427549B2, “Pyrimidinyloxy benzo-fused compounds as herbicides” (FMC Corporation, priority 2017, dated 2022).

In data set [1] the test system is foxtail, green (green foxtail, Setaria viridis). Kind of data set: Test A preemergence, foxtail, green. The data set is classed as in vivo. The note with it: Setaria, pre-emergence, 240 h, 0 to 100 scale (0 no effect, 100 complete control), read-out: Plant response rating, Foxtail, Green; for pest or weed control at 31 g/ha: 31 g ai/ha; for pest or weed control at 125 g/ha: 125 g ai/ha. An excerpt: (§1) Seeds of plant species selected from barnyardgrass (Echinochloa crus-galli), kochia (Kochia scoparia), ragweed (common ragweed, Ambrosia elatior), ryegrass, Italian (Italian ryegrass, Lolium multiflorum), foxtail, giant (giant foxtail, Setaria faberii), foxtail, green (green foxtail, Setaria viridis) and pigweed (Amaranthus retroflexus) were planted into a blend of loam soil and sand and treated preemergence with a directed soil spray using test chemicals formulated in a non-phytotoxic solvent mixture which included a surfactant.
(§2) At the same time, plants selected from these weed species and also wheat (Triticum aestivum), corn (Zea mays), blackgrass (Alopecurus myosuroides), and galium (catchweed bedstraw, Galium aparine) were planted in pots containing the same blend of loam soil and sand and treated with postemergence applications of test chemicals formulated in the same manner. Plants ranged in height from 2 to 10 cm and were in the one- to two-leaf stage for the postemergence treatment. Treated plants and untreated controls were maintained in a greenhouse for approximately 10 days, after which time all treated plants were compared to untreated controls and visually evaluated for injury. […] A dash (-) response means no test result.

Data set [2] concerns foxtail, giant (giant foxtail, Setaria faberii). The experiment in a line: Test A postemergence, foxtail, giant. The data set is classed as in vivo. The note with it: Setaria faberi, post-emergence, 240 h, 0 to 100 scale (0 no effect, 100 complete control), read-out: Plant response rating, Foxtail, Giant; for pest or weed control at 31 g/ha: 31 g ai/ha; for pest or weed control at 125 g/ha: 125 g ai/ha.
Description: as §1, §2

For data set [3] the test system is unchanged. Kind of data set: Test A preemergence, foxtail, giant. It is filed as in vivo. The conditions noted are these: Setaria faberi, pre-emergence, 240 h, 0 to 100 scale (0 no effect, 100 complete control), read-out: Plant response rating, Foxtail, Giant; for pest or weed control at 31 g/ha: 31 g ai/ha; for pest or weed control at 125 g/ha: 125 g ai/ha.
Description: as §1, §2

For `CN1C(=O)c2cccc(Oc3ncc(Cl)cn3)c2C1CCCC(F)(F)F` (stereo not drawn) [Compound 12, 4-[(5-Chloro-2-pyrimidinyl)oxy]-2,3-dihydro-2-methyl-3-(4,4,4-trifluorobutyl)-1H-isoindol-1-one], in data set [1], the pest or weed control at 31 g/ha worked out at 0% and the pest or weed control at 125 g/ha came to 0%.

Consider `O=C1NC(CCCC(F)(F)F)c2c(Oc3ncc(Cl)cn3)cccc21` (stereo not drawn) [Compound 13, 4-[(5-Chloro-2-pyrimidinyl)oxy]-2,3-dihydro-3-(4,4,4-trifluorobutyl)-1H-isoindol-1-one], for which, in data set [1], the pest or weed control at 31 g/ha was found to be 0% and the pest or weed control at 125 g/ha was determined as 0%.

Take `OC1(CCC(F)(F)F)CCc2cccc(Oc3ncc(Cl)cn3)c21` (stereo not drawn) [Compound 14, 7-[(5-Chloro-2-pyrimidinyl)oxy]-2,3-dihydro-1-(3,3,3-trifluoropropyl)-1H-inden-1-ol]: the pest or weed control at 125 g/ha in data set [1] was 40%. In addition, the pest or weed control at 500 g/ha in data set [1] (500 g ai/ha) was determined as 100%.

In general, melting point refers to the temperature of the solid-liquid transition. For `O=C1Cc2cccc(Oc3ncc(Cl)cn3)c2C(CCCC(F)(F)F)O1` (stereo not drawn) [Compound 17, 8-[(5-Chloro-2-pyrimidinyl)oxy]-1,4-dihydro-1-(4,4,4-trifluorobutyl)-3H-2-benzopyran-3-one], the melting point was in the range of 125 to 129 °C. Further, in data set [2], the pest or weed control at 31 g/ha is 20% and the pest or weed control at 125 g/ha was found to be 40%. Moreover, in data set [3], the pest or weed control at 31 g/ha was determined as 10% and the pest or weed control at 125 g/ha came to 70%.

In the case of `O=C1O[C@@H](CCC(F)(F)F)c2c(Oc3ncc(Cl)cn3)cccc21` [Compound 18, (3S)-4-[(5-Chloro-2-pyrimidinyl)oxy]-3-(3,3,3-trifluoropropyl)-1(3H)-isobenzofuranone], the melting point lay within 99 to 101 °C. Further, in data set [2], the pest or weed control at 31 g/ha stood at 0% and the pest or weed control at 125 g/ha was determined as 0%. Also, in data set [3], the pest or weed control at 31 g/ha worked out at 0% and the pest or weed control at 125 g/ha came to 0%.

For the molecule `O=C1O[C@H](CCC(F)(F)F)c2c(Oc3ncc(Cl)cn3)cccc21` [Compound 19, (3R)-4-[(5-Chloro-2-pyrimidinyl)oxy]-3-(3,3,3-trifluoropropyl)-1(3H)-isobenzofuranone], the melting point was 94 to 99 °C. In data set [2], the pest or weed control at 31 g/ha came out at 60% and the pest or weed control at 125 g/ha was determined as 90%. In data set [3], the pest or weed control at 31 g/ha turned out to be 100% and the pest or weed control at 125 g/ha turned out to be 100%.

Regarding `O=C1OC(CCC(F)(F)F)Cc2c(Oc3ncc(Cl)cn3)cccc21` (stereo not drawn) [Compound 23, 5-[(5-Chloro-2-pyrimidinyl)oxy]-3,4-dihydro-3-(3,3,3-trifluoropropyl)-1H-2-benzopyran-1-one], the melting point was in the range of 117 to 121 °C. In addition, in data set [2], the pest or weed control at 31 g/ha stood at 0% and the pest or weed control at 125 g/ha stood at 10%. In data set [3], the pest or weed control at 31 g/ha was 0% and the pest or weed control at 125 g/ha was found to be 40%.

For `O=C1Cc2cccc(Oc3ncc(Cl)cn3)c2C(CCC(F)(F)F)O1` (stereo not drawn) [Compound 28, 8-[(5-Chloro-2-pyrimidinyl)oxy]-1,4-dihydro-1-(3,3,3-trifluoropropyl)-3H-2-benzopyran-3-one], the melting point was in the range of 122 to 126 °C. Moreover, in data set [2], the pest or weed control at 31 g/ha is 10% and the pest or weed control at 125 g/ha amounted to 20%. Also, in data set [3], the pest or weed control at 31 g/ha stood at 10% and the pest or weed control at 125 g/ha is 100%.

Molecule `O=C1OC(CCCCC(F)(F)F)Cc2c(Oc3ncc(Cl)cn3)cccc21` (stereo not drawn) [Compound 31, 5-[(5-Chloro-2-pyrimidinyl)oxy]-3,4-dihydro-3-(5,5,5-trifluoropentyl)-1H-2-benzopyran-1-one] yielded a melting point of 93 to 97 °C. Moreover, in data set [2], the pest or weed control at 31 g/ha worked out at 0% and the pest or weed control at 125 g/ha is 0%. Moreover, in data set [3], the pest or weed control at 31 g/ha was 0% and the pest or weed control at 125 g/ha amounted to 0%.

Turning to `CCCC1OC(=O)Cc2cccc(Oc3ncc(Cl)cn3)c21` (stereo not drawn) [Compound 35, 8-[(5-Chloro-2-pyrimidinyl)oxy]-1,4-dihydro-1-propyl-3H-2-benzopyran-3-one], the melting point is 136 to 140 °C. In addition, in data set [1], the pest or weed control at 31 g/ha is 0% and the pest or weed control at 125 g/ha is 10%.
